Test results published in the NIST ThermoML archive (doi:10.1016/j.jct.2016.02.009).

Experiment: molar heat capacity at constant pressure
Conditions: 101.33 kPa, Small (less than 1 g) adiabatic calorimetry

CCCCCCCCCCCCCCCCn1cc[n+](C)c1.O=S(=O)([N-]S(=O)(=O)C(F)(F)F)C(F)(F)F
Conditions	molar heat capacity at constant pressure [J/K/mol]
240 K, Crystal 2	635.6
240.65 K, Crystal 2	637.6
242.87 K, Crystal 2	643.5
245.08 K, Crystal 2	650
247.28 K, Crystal 2	657
249.47 K, Crystal 2	663.5
250 K, Crystal 2	665.4
251.67 K, Crystal 2	671.1
253.85 K, Crystal 2	678.2
256.03 K, Crystal 2	685.8
258.19 K, Crystal 2	693.5
260 K, Crystal 2	700.6
260.35 K, Crystal 2	701.7
262.5 K, Crystal 2	710.5
264.64 K, Crystal 2	719.9
266.77 K, Crystal 2	729.9
268.89 K, Crystal 2	740.5
270 K, Crystal 2	745.5
271 K, Crystal 2	751.1
273.1 K, Crystal 2	761.1
275.18 K, Crystal 2	773.4
277.25 K, Crystal 2	786.9
279.3 K, Crystal 2	801
280 K, Crystal 2	806.6
281.34 K, Crystal 2	816.9
283.37 K, Crystal 2	834.5
285.38 K, Crystal 2	853.3
287.36 K, Crystal 2	875.7
289.32 K, Crystal 2	901.5
290 K, Crystal 2	909.7
291.26 K, Crystal 2	930.9
293.07 K, Crystal 2	958.5
293.16 K, Crystal 2	965
293.61 K, Crystal 2	968.5
294.12 K, Crystal 2	978.5
294.63 K, Crystal 2	990.3
295.02 K, Crystal 2	1004
295.14 K, Crystal 2	1002
295.64 K, Crystal 2	1014
296.14 K, Crystal 2	1027
296.64 K, Crystal 2	1039
296.85 K, Crystal 2	1050
297.14 K, Crystal 2	1053
297.63 K, Crystal 2	1068
298.11 K, Crystal 2	1082
298.15 K, Crystal 2	1084
298.6 K, Crystal 2	1098
298.63 K, Crystal 2	1103
299.08 K, Crystal 2	1113
299.55 K, Crystal 2	1129
300 K, Crystal 2	1146
300.03 K, Crystal 2	1146
300.36 K, Crystal 2	1161
300.49 K, Crystal 2	1161
300.96 K, Crystal 2	1177
301.42 K, Crystal 2	1193
301.88 K, Crystal 2	1207
302.1 K, Crystal 2	1219
302.34 K, Crystal 2	1222
302.79 K, Crystal 2	1235
303.24 K, Crystal 2	1248
303.69 K, Crystal 2	1253
303.84 K, Crystal 2	1262
304.13 K, Crystal 2	1267
304.58 K, Crystal 2	1271
305.02 K, Crystal 2	1273
305.47 K, Crystal 2	1274
305.5 K, Crystal 1	1274
305.5 K, Crystal 2	1274
305.56 K, Crystal 1	1278
305.91 K, Crystal 1	1275
306.36 K, Crystal 1	1271
306.8 K, Crystal 1	1269
307.24 K, Crystal 1	1268
307.28 K, Crystal 1	1272
307.69 K, Crystal 1	1266
308.14 K, Crystal 1	1261
308.58 K, Crystal 1	1257
309.01 K, Crystal 1	1254
309.03 K, Crystal 1	1251
309.48 K, Crystal 1	1242
309.93 K, Crystal 1	1229
310 K, Crystal 1	1229
310.39 K, Crystal 1	1187
310.81 K, Crystal 1	1097
310.86 K, Crystal 1	1054
311.36 K, Crystal 1	989.7
311.88 K, Crystal 1	984.4
312.39 K, Crystal 1	986.1
312.73 K, Crystal 1	995.5
312.9 K, Crystal 1	992
313.41 K, Crystal 1	997.9
313.91 K, Crystal 1	1011
314.42 K, Crystal 1	1032
314.68 K, Crystal 1	1051
316.51 K, Crystal 1	1261
319.25 K, Crystal 1	1044
319.25 K, Liquid	972
320 K, Liquid	972
320.76 K, Liquid	972.6
321.02 K, Liquid	972.6
322.55 K, Liquid	974.4
322.92 K, Liquid	974.4
324.34 K, Liquid	976.2
324.82 K, Liquid	975.6
326.13 K, Liquid	977.9
326.72 K, Liquid	977.3
327.92 K, Liquid	978.5
328.62 K, Liquid	979.7
329.71 K, Liquid	980.3
330 K, Liquid	981
330.52 K, Liquid	981.4
331.5 K, Liquid	982
332.43 K, Liquid	982.6
333.29 K, Liquid	983.8
334.33 K, Liquid	984.4
335.08 K, Liquid	985.6
336.23 K, Liquid	986.1
336.87 K, Liquid	986.7
338.13 K, Liquid	988.5
338.66 K, Liquid	989.1
340 K, Liquid	990
340.03 K, Liquid	990.3
340.45 K, Liquid	990.3
341.93 K, Liquid	991.4
342.24 K, Liquid	992
343.84 K, Liquid	993.8
344.04 K, Liquid	993.2
345.74 K, Liquid	995
345.83 K, Liquid	995
347.62 K, Liquid	997.3
347.64 K, Liquid	996.7
349.41 K, Liquid	998.5
349.55 K, Liquid	999.7
350 K, Liquid	1000
351.2 K, Liquid	1000
351.45 K, Liquid	1001
353 K, Liquid	1003
353.35 K, Liquid	1003
354.79 K, Liquid	1004
355.25 K, Liquid	1006
356.58 K, Liquid	1007
357.16 K, Liquid	1007
358.37 K, Liquid	1009
359.06 K, Liquid	1009
360 K, Liquid	1010
360.16 K, Liquid	1011
360.96 K, Liquid	1011
361.95 K, Liquid	1013
362.86 K, Liquid	1013
363.74 K, Liquid	1014
364.75 K, Liquid	1015
365.52 K, Liquid	1016
366.65 K, Liquid	1018
367.31 K, Liquid	1018
368.55 K, Liquid	1020
370 K, Liquid	1022
